# Experimental data published in US20170095522A1, “Compositions Containing Extracts of Curcuma SPP and Zingiber officinale Which Are Useful to Reduce Peripheral Inflammation and Pain” (INDENA S.p.A., priority 2015, published 2017).
# Marks after values point to notes of the source that are not given here.
# How the values were obtained:
# [1] = cited from earlier work
# [2] = tested on: patients with grade I or II hip osteoarthritis; experiment: Karnofsky Performance Scale Index in 8-month hip osteoarthritis study; assay type: in vivo, human
# Method: The clinical end-points (WOMAC score, Karnofsky Performance Scale Index and treadmill walking performance) were evaluated for the single agents and for the combination of the two vs. a placebo. […] 100 patients with grade I or II hip osteoarthritis, confirmed by X-ray analysis, were enrolled in the study. The patients were allowed to self-medicate with NSAIDs during the 8-month trial. […] Group C received a combination of curcumin and Zingiber officinale at the same doses as reported above for the single ingredients. The last group received a corresponding placebo. To ensure clinical homogeneity, the main location of the osteoarthritis in these subjects, and the source of most of their signs and symptoms, was in one or both hips. Primary osteoarthritis in one or both hips was diagnosed by X-ray investigation. The subjects had mild to moderate pain not adequately or completely controlled with anti-inflammatory drugs. They had to be able to perform the treadmill walking test and to understand all the questions in the WOMAC questionnaire. The Karnofsky Performance Scale Index was used to classify the patients in terms of functional impairment. The Karnofsky Performance Scale Index can be used to compare the effectiveness of different treatments and to assess the prognosis in individual patients. The lower the Karnofsky score, the worse the patient's functional impairment. The variations in the results (i.e. walking distance) were considered parametric. Non-parametric observations (e.g. the WOMAC score) were evaluated with analysis of variance (ANOVA with the Bonferroni correction). Considering the possible intra-individual and inter-individual data variations, at least 40 completing subjects were needed for this type of study (at least 40 subjects who completed the entire follow-up period in each group). This numerical value was established, on the basis of our previous study, with a view to eliminating spontaneous variability and time variations. OA and its related signs/symptoms, even under conditions of relative stability, may have a spontaneous degree of variability associated with periods of improvement. Clinical variations in signs/symptoms, walking distance, oedema and the Karnofsky scale may be due to various clinical and non-clinical (i.e.
# [3] = tested on: patients with grade I or II hip osteoarthritis; experiment: WOMAC scores (signs/symptoms of osteoarthritis) in 8-month hip osteoarthritis study; assay type: in vivo, human
# Method: The clinical end-points (WOMAC score, Karnofsky Performance Scale Index and treadmill walking performance) were evaluated for the single agents and for the combination of the two vs. a placebo. […] 100 patients with grade I or II hip osteoarthritis, confirmed by X-ray analysis, were enrolled in the study. The patients were allowed to self-medicate with NSAIDs during the 8-month trial. […] Group C received a combination of curcumin and Zingiber officinale at the same doses as reported above for the single ingredients. The last group received a corresponding placebo. To ensure clinical homogeneity, the main location of the osteoarthritis in these subjects, and the source of most of their signs and symptoms, was in one or both hips. Primary osteoarthritis in one or both hips was diagnosed by X-ray investigation. The subjects had mild to moderate pain not adequately or completely controlled with anti-inflammatory drugs. They had to be able to perform the treadmill walking test and to understand all the questions in the WOMAC questionnaire. The questionnaire developed by the Western Ontario and McMaster Universities was applied to describe and rate the symptoms of OA. The questionnaire produces scores for the various symptoms of OA (WOMAC scores). The status of the OA signs/symptoms was evaluated by the investigator together with the patient on inclusion, and after 1 month, 4 months and 8 months treatment. The variations in the results (i.e. walking distance) were considered parametric. Non-parametric observations (e.g. the WOMAC score) were evaluated with analysis of variance (ANOVA with the Bonferroni correction). Considering the possible intra-individual and inter-individual data variations, at least 40 completing subjects were needed for this type of study (at least 40 subjects who completed the entire follow-up period in each group). This numerical value was established, on the basis of our previous study, with a view to eliminating spontaneous variability and time variations. OA and its related signs/symptoms, even under conditions of relative stability, may have a spontaneous degree of variability associated with periods of improvement. Clinical variations in signs/symptoms, walking distance, oedema and the Karnofsky scale may be due to various clinical and non-clinical (i.e.
# [4] = preliminary clinical trials; oral; cited from earlier work
# [5] = tested on: patients with grade I or II hip osteoarthritis; experiment: Treadmill walking test, total pain-free distance; assay type: in vivo, human; conditions: 3 km/hour, 10% incline
# Method: The clinical end-points (WOMAC score, Karnofsky Performance Scale Index and treadmill walking performance) were evaluated for the single agents and for the combination of the two vs. a placebo. […] 100 patients with grade I or II hip osteoarthritis, confirmed by X-ray analysis, were enrolled in the study. The patients were allowed to self-medicate with NSAIDs during the 8-month trial. […] Group C received a combination of curcumin and Zingiber officinale at the same doses as reported above for the single ingredients. The last group received a corresponding placebo. To ensure clinical homogeneity, the main location of the osteoarthritis in these subjects, and the source of most of their signs and symptoms, was in one or both hips. Primary osteoarthritis in one or both hips was diagnosed by X-ray investigation. The subjects had mild to moderate pain not adequately or completely controlled with anti-inflammatory drugs. They had to be able to perform the treadmill walking test and to understand all the questions in the WOMAC questionnaire. […] On inclusion and after 1 month, 4 months and 8 months treatment, the patient's performance was evaluated with the treadmill test at a speed of 3 km/h and an incline of 10%. The total pain-free distance was recorded. […] Non-parametric observations (e.g. the WOMAC score) were evaluated with analysis of variance (ANOVA with the Bonferroni correction). […]
smiles,measurement,setting,value
"COc1cc(/C=C/C(=O)CC(=O)/C=C/c2ccc(O)c(OC)c2)ccc1O [Curcumin, curcumin]",Solubility in water and fats,[1],poorly soluble
same,Karnofsky scale (median),"[2]; 1 month treatment, curcumin 1000 mg/day and/or Zingiber officinale extract 100 mg/day",77
same,Karnofsky scale (median),"[2]; 4 months treatment, curcumin 1000 mg/day and/or Zingiber officinale extract 100 mg/day",80*
same,"Karnofsky Scale scores, result in words",[2]; 8-month study,significantly improved
same,Karnofsky scale (median),"[2]; 8 months treatment, curcumin 1000 mg/day and/or Zingiber officinale extract 100 mg/day",81*
same,Karnofsky scale (median),"[2]; Inclusion (baseline), hip osteoarthritis patients",73
same,WOMAC Pain mean score,[3]; 1 month treatment,13
same,WOMAC Physical functions mean score,[3]; 1 month treatment,45
same,WOMAC Stiffness mean score,[3]; 1 month treatment,5
same,WOMAC Pain mean score,[3]; R = recruitment (baseline),16
same,WOMAC Physical functions mean score,[3]; R = recruitment (baseline),55
same,WOMAC Stiffness mean score,[3]; R = recruitment (baseline),7
same,"WOMAC pain scores, result in words","[3]; after one month's administration, p<0.05",fell significantly
same,Bioavailability,[4],low bioavailability
same,"Treadmill distance (median), total pain-free distance",[5]; 1 month treatment,100*
same,"Treadmill distance (median), total pain-free distance",[5]; R = recruitment (baseline),77
